In US20260250318A1, “COMPOSITIONS AND METHODS FOR CROSSING THE BLOOD BRAIN BARRIER” (VOYAGER THERAPEUTICS, INC., priority 2022, published 2026):

Tests used:
brain = test: Matured TTM-001 and TTM-002 variants, NGS enrichment in mouse brain; format: in vivo, mice; settings: relative to AAV9 control
[1] = tested on: brains, heart, liver, muscle, and DRG of the NHPs; test: Maturation of TTM-001 and TTM-002 capsids, NGS enrichment in NHP tissues; format: in vivo; settings: relative to AAV9 control
In short: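 Variants carry mutations within and flanking the loop IV peptide insert: positions 450–466 were triplet-randomized, while positions 449–466 received low-frequency point mutations. The combined pool went into two NHPs, and each peptide was scored by NGS enrichment ratio against AAV9.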

[2] = NGS fold-enrichment of matured AAV capsid variants, NHP brain, RNA
[3] = NGS fold-enrichment, brain of mice
[4] = NGS fold-enrichment, mouse brain
[5] = NGS fold-enrichment of RNA, NHP brain
[6] = NGS fold-enrichment, DRG of NHPs
[7] = NGS fold-enrichment, NHP liver DNA
[8] = NGS fold-enrichment, NHP liver RNA
[9] = NGS fold-enrichment, NHP muscle
[10] = NGS fold-enrichment, RNA, brain of NHPs
[11] = NGS fold-enrichment, heart of NHPs
[12] = NGS fold-enrichment, liver DNA of NHPs
[13] = NGS fold-enrichment, liver RNA of NHPs
[14] = NGS fold-enrichment, muscle of NHPs

Row | Sequence | Fold Enrichment relative to AAV9, Brain (Mouse) (brain; mouse brain) | Fold Enrichment relative to AAV9, Brain (NHP) [1, 2] | Fold Enrichment relative to AAV9, DRG (NHP) ([1]; NHP DRG) | Fold Enrichment relative to AAV9, Heart (NHP) ([1]; NHP heart) | Fold Enrichment relative to AAV9, Liver DNA (NHP) ([1]; NHP liver, DNA) | Fold Enrichment relative to AAV9, Liver RNA (NHP) ([1]; NHP liver, RNA) | Fold Enrichment relative to AAV9, Muscle (NHP) ([1]; NHP muscle) | Fold Enrichment relative to AAV9, Brain (Mouse) (brain; [3]) | Fold Enrichment relative to AAV9, DRG (NHP) [1, 6] | Fold Enrichment relative to AAV9, Brain (NHP) [1, 10] | Fold Enrichment relative to AAV9, Heart (NHP) [1, 11] | Fold Enrichment relative to AAV9, Liver DNA (NHP) [1, 12] | Fold Enrichment relative to AAV9, Liver RNA (NHP) [1, 13] | Fold Enrichment relative to AAV9, Muscle (NHP) [1, 14] | other results
1 | KTINGSGSPHSKAPNLQI | 55.714 fold | 58.022 fold | 0.000 fold | 0.044 fold | 0.243 fold | 1.548 fold | 0.000 fold |  |  |  |  |  |  |  | 
2 | KTINGSGSPHSKSQTQQN |  |  |  |  |  |  |  | 54.021 fold | 0.000 fold | 104.474 fold | 0.131 fold | 0.038 fold | 0.084 fold | 0.000 fold | Fold Enrichment relative to AAV9, Brain (Mouse) (brain; [4]): 54.021 fold; Fold Enrichment relative to AAV9, Brain (NHP) [1, 5]: 104.474 fold; Fold Enrichment relative to AAV9, DRG (NHP) ([1]; NGS fold-enrichment, NHP DRG): 0.000 fold; Fold Enrichment relative to AAV9, Heart (NHP) ([1]; NGS fold-enrichment, NHP heart): 0.131 fold; Fold Enrichment relative to AAV9, Liver DNA (NHP) [1, 7]: 0.038 fold; Fold Enrichment relative to AAV9, Liver RNA (NHP) [1, 8]: 0.084 fold; Fold Enrichment relative to AAV9, Muscle (NHP) [1, 9]: 0.000 fold
3 | KTINGSGSPHSKAQPPAT |  |  |  |  |  |  |  | 117.453 fold | 0.048 fold | 63.510 fold | 0.030 fold | 0.302 fold | 0.126 fold | 0.031 fold | 
4 | KTESGHDSPHKSGQNQQT |  |  |  |  |  |  |  |  |  |  |  |  |  |  | Fold Enrichment relative to AAV9, Brain (Mouse) (brain; [4]): 13.163 fold; Fold Enrichment relative to AAV9, Brain (NHP) [1, 5]: 86.513 fold; Fold Enrichment relative to AAV9, DRG (NHP) ([1]; NGS fold-enrichment, NHP DRG): 0.000 fold; Fold Enrichment relative to AAV9, Heart (NHP) ([1]; NGS fold-enrichment, NHP heart): 7.414 fold; Fold Enrichment relative to AAV9, Liver DNA (NHP) [1, 7]: 0.038 fold; Fold Enrichment relative to AAV9, Liver RNA (NHP) [1, 8]: 0.000 fold; Fold Enrichment relative to AAV9, Muscle (NHP) [1, 9]: 0.000 fold
5 | KTVNGGGSPHSKAQNHQT | 67.188 fold | 54.246 fold | 0.375 fold | 0.024 fold | 0.146 fold | 0.000 fold | 0.000 fold |  |  |  |  |  |  |  | 
6 | KTIIGGGSPHSKAQNPQT | 53.992 fold | 58.924 fold | 0.000 fold | 0.202 fold | 0.126 fold | 0.000 fold | 0.000 fold |  |  |  |  |  |  |  | 
7 | KTINGSGSPHSKAIGKQT | 110.132 fold | 56.158 fold | 0.000 fold | 0.000 fold | 0.088 fold | 0.887 fold | 0.000 fold |  |  |  |  |  |  |  | 
8 | KTVKGSGSPHSKAQDQQT |  |  |  |  |  |  |  | 58.114 fold | 0.000 fold | 61.175 fold | 0.041 fold | 0.090 fold | 0.432 fold | 0.000 fold | 
